# Results reported in paper PMC6891813, “Piltunines A–F from the Marine-Derived Fungus Penicillium piltunense KMM 4668” (Marine Drugs, 2019).
# Columns and labels:
# [1] = system: human prostate non-cancer PNT-2 cells; experiment: MTT cytotoxicity assay, PNT-2 cells; format: cell-based; conditions: Homo sapiens, PNT2, 72 h treatment
# Excerpt: (§1) We have investigated the effect of the isolated compounds 1, 1a, 2, 7–9 on the viability of human drug-resistant prostate cancer 22Rv1 cell as well as on human prostate non-cancer PNT-2 cells using an MTT assay (Table 3). We have also determined a selectivity index (SI) at for all the tested substances (Table 3). […] Note, 22Rv1 cells are known to be resistant to the hormone therapy due to the expression of androgen receptor splice variant AR-V7 [15]. Thus, the compounds which are active inAR-V7-positive 22Rv1 cells are of high clinical interest.
# (§2) The human prostate cancer cells 22Rv1 and human prostate non-cancer cells PNT-2 were purchased from ATCC. Cell lines were cultured according to the manufacturers instructions in 10% FBS/RPMI media (Invitrogen). Cells were continuously kept in culture for a maximum of 3 months, and were routinely inspected microscopically for stable phenotype and regularly checked for contamination with mycoplasma. The authentity of the cells has recently been confirmed by the Multiplexion (Heidelberg, Germany) using highly polymorphic short tandem repeat loci.
# (§3) The in vitro cytotoxicity of individual substances was evaluated using the MTT (3-(4,5-dimethylthiazol-2-yl)-2,5-diphenyltetrazolium bromide) assay, which was performed as previously described. The vehicle (DMSO) treated cells were used as a negative control. Treatment time was 72 h.
# [2] = MTT cytotoxicity assay, PNT-2 cells; format: cell-based, human; conditions: human, PNT-2 prostate non-cancer cells, 100 µM, 72 h, read-out: Viability at 100 µM, % of Control, PNT-2 Cells
# Excerpt: as §1, §2, §3
# [3] = system: human drug-resistant prostate cancer 22Rv1 cell; experiment: MTT cytotoxicity assay, 22Rv1 cells; format: cell-based; conditions: for viability at 100 µM / IC50: Homo sapiens, 22Rv1; for viability at 100 µM: read-out: Viability at 100 µM, % of Control, 22Rv1 Cells; for IC50: 72 h treatment; for SI (selectivity index): [viability of PNT-2 cells]/[viability of 22Rv1 cells] at 100 µM
# Excerpt: as §1, §2, §3
# [4] = system: murine peritoneal macrophages co-incubated with lipopolysaccharide (LPS); experiment: ROS level analysis in LPS-treated macrophages (DCF-DA fluorescence); format: cell-based, Mice BALB/c; conditions: 10 μM, 1 h at 37 °C, LPS co-incubation; p < 0.05
# Procedure: Figure 5 Effect of compounds on reactive oxygen species (ROS) level in murine peritoneal macrophages co-incubated with lipopolysaccharide (LPS). The compounds were tested at a concentration of 10 μM. Time of cell incubation with compounds was 1 h at 37 °C. * p < 0.05. (Student’s t-test).
# The suspension of macrophages on 96-well plates (2 × 10^4 cells/well) were washed withphosphate-buffered saline (PBS) and treated with 180 µL/well of the tested compounds (10 μM) for 1 h and 20 µL/well LPS from E. coli serotype 055:В5 (Sigma-Aldrich, MA, USA, 1.0 μg/mL), which were both dissolved in PBS and cultured at 37 °C in a CO2-incubator for one hour. For the ROS levels measurement, 200 μL of 2,7-dichlorodihydrofluorescein diacetate (DCF-DA, Sigma, final concentration 10 μM) fresh solution was added to each well, and the plates were incubated for 30 min at 37 °C. The intensity of DCF-DA fluorescence was measured at λex 485 n/λem 518 nm using the plate reader PHERAstar FS (BMG Labtech, Offenburg, Germany).
# Mice BALB/c were sacrificed by cervical dislocation. Peritoneal macrophages were isolated using standard procedures. For this purpose, 3 ml of PBS (pH 7.4) was injected into the peritoneal cavity and the body intensively palpated for 1–2 min. Then the peritoneal fluid was aspirated with a syringe. […]
# [5] = system: LPS-stimulated macrophages; experiment: NO (RNS) level analysis in LPS-treated macrophages (DAF FM-DA fluorescence); format: cell-based, Mice BALB/c; conditions: 1 μM (non-toxic concentration); p < 0.05
# Procedure: Compound 9 suppressed NO production in LPS-stimulated macrophages at non-toxic concentration of 1 μM. NO level in these cells was decreased by 24.1 ± 0.7% (p < 0.05, Student’s t-test) in comparison with LPS-treated control (data not shown). Therefore, compound 9 may be a promising candidate for the therapy of inflammatory diseases accompanying overproduction of NO.
# The suspension of macrophages on 96-well plates (2 × 10^4 cells/well) were washed with the PBS and treated with 180 µL/well of the tested compounds (10 μM) for 1 h and 20 µL/well LPS from E. coli serotype 055:В5 (Sigma, 1.0 μg/mL), which were both dissolved in PBS and cultured at 37 °C in a CO2-incubator for one hour. For the RNS levels measurement, 200 μL Diaminofluorescein-FM diacetate (DAF FM-DA, Sigma, final concentration 10 μM) fresh solution was added to each well, and the plates were incubated for 40 min at 37 °C, then replace with fresh PBS, and then incubated for an additional 30 min to allow complete de-esterification of the intracellular diacetates. The intensity of DAF FM-DA fluorescence was measured at λex 485 n/λem 520 nm using the plate reader PHERAstar FS (BMG Labtech, Offenburg, Germany).
# Mice BALB/c were sacrificed by cervical dislocation. Peritoneal macrophages were isolated using standard procedures. […]
Structure (SMILES),IC50 [1],"viability at 72 h, 100 µM [2]","viability at 100 µM ([3]; 72 h, MTT assay)",IC50 ([3]; MTT assay),SI (selectivity index) ([3]; 72 h),Effect on ROS production [4],"Cytotoxicity in cancer cells in comparison with the other substances ([3]; MTT assay, 72 h)",Decrease of NO level in comparison with LPS-treated control [5],IC50 ([1]; positive control),"IC50 ([3]; MTT assay, positive control)"
"CC(CO)=C1CCC23COC(C2)C(O)(C(=O)O)CCC13 (centres unmarked) [Compound 1, Piltunine A]",> 100 µM,97.2%,65.5%,> 100 µM,1.48,,,,,
COC(=O)C1(O)CCC2C(=C(C)CO)CCC23COC1C3 (centres unmarked) [Compound 1a],> 100 µM,80.4%,62.2%,> 100 µM,1.29,,,,,
"CC(=O)OC/C(C)=C1\CC[C@]23CO[C@H](C2)[C@@](O)(C(=O)O)CC[C@@H]13 [Compound 2, Piltunine B]",> 100 µM,82.9%,61.9%,> 100 µM,1.34,,,,,
"CC(=O)C1=CC[C@]23CO[C@H](C2)[C@@](O)(C(=O)O)CC[C@@H]13 [Compound 5, Piltunine E]",,,,,,significant down-regulation of ROS production,,,,
"C=C(C)C1(O)CCC23COC(C2)C(O)(C(=O)O)CCC31 (centres unmarked) [Compound 7, penigrisacid D]",> 100 µM,80.7%,63.8%,> 100 µM,1.26,,,,,
"C[C@H]1CCC[C@H](C[C@H]2Cc3cc(O)cc(O)c3C(=O)O2)O1 [Compound 8, cladosporin]",> 100 µM,88.1%,38.7%,71.7 ± 8.9 µM,,,most cytotoxic in cancer cells,,,
"CC1OC(CC2Cc3cc(O)cc(O)c3C(=O)O2)CCC1O (centres unmarked) [Compound 9, 5’-hydroxyasperentin]",> 100 µM,55.5%,54.9%,> 100 µM,1.01,significant down-regulation of ROS production,,24.1 ± 0.7%,,
"CC(=O)O[C@@]12CO[C@@H]1C[C@H](O)[C@@]1(C)C(=O)[C@H](O)C3=C(C)[C@@H](OC(=O)[C@H](O)[C@@H](NC(=O)OC(C)(C)C)c4ccccc4)C[C@@](O)([C@@H](OC(=O)c4ccccc4)[C@H]21)C3(C)C [Docetaxel, reference compound]",,,,,,,,,0.0847 ± 0.0206 µM,0.00278 ± 0.00107 µM
